Assay [1] deals with DOHH2 cells. The assay can be described thus: Cell proliferation assay (MTS), DOHH2 cells, 120 h. The assay is classed as cell-based. To be noted: Homo sapiens, DOHH-2, 120 h. The gist of the method:
(§1)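 RS4;11 and DOHH2 cells at 5000 cells/well in RPMI-1640 with 10% FBS were treated with compound at 1.5–10000 nM final, nine points, at 37 °C, 5% CO2. Exposure was 72 h for RS4;11 and 120 h for DOHH2. MTS was added for 2 h, absorbance read at 490/650 nm, and IC50 calculated.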

Assay [2] has as its system RS4;11 cells. The assay can be described thus: Cell proliferation assay (MTS), RS4;11 cells, 72 h. The assay is classed as cell-based. To be noted: Homo sapiens, RS4-11, 72 h. A digest of the protocol: as §1

The source of these data is patent US11091478B2 (Fochon Pharmaceuticals, Ltd., priority 2017, dated 2021).

In the case of `CN1CCN(C(=O)[C@H]2COc3cc(S(=O)(=O)NC(=O)c4ccc(N5CCN(CC6=C(c7ccc(Cl)cc7)CC(C)(C)CC6)CC5)cc4Oc4cnc5[nH]ccc5c4)cc([N+](=O)[O-])c3N2)CC1` [Example 2-104, (R)-2-((1H-pyrrolo[2,3-b]pyridin-5-yl)oxy)-4-(4-((4′-chloro-5,5-dimethyl-3,4,5,6-tetra-hydro[1,1′-biphenyl]-2-yl)methyl)piperazin-1-yl)-N-((3-(4-methylpiperazine-1-carbo-nyl)-5-nitro-3,4-dihydro-2H-benzo[b][1,4]oxazin-7-yl)sulfonyl)benzamide], the figures for the IC50 in assay [1] and in assay [2] were 173 nM and 7 nM, respectively.

As to `CC1(C)CCC(CN2CCN(c3ccc(C(=O)NS(=O)(=O)c4cc5c(c([N+](=O)[O-])c4)N[C@@H](CN4C[C@@H]6C[C@H]4CO6)CO5)c(Oc4cnc5[nH]ccc5c4)c3)CC2)=C(c2ccc(Cl)cc2)C1` [Example 2-87, 2-((1H-pyrrolo[2,3-b]pyridin-5-yl)oxy)-N-(((S)-3-(((1S,4S)-2-oxa-5-azabicyclo[2.2.1]heptan-5-yl)methyl)-5-nitro-3,4-dihydro-2H-benzo[b][1,4]oxazin-7-yl)sulfonyl)-4-(4-((4′-chloro-5,5-dimethyl-3,4,5,6-tetrahydro-[1,1′-biphenyl]-2-yl)methyl)piperazin-1-yl) benzamide], the values for the IC50 in assay [1] and in assay [2] were 26 nM and 7 nM, respectively.

On to `CC1(C)CCC(CN2CCN(c3ccc(C(=O)NS(=O)(=O)c4cc5c(c([N+](=O)[O-])c4)N[C@H](C4CC4)CO5)c(Oc4cnc5[nH]ccc5c4)c3)CC2)=C(c2ccc(Cl)cc2)C1` [Example 2-109, (R)-2-((1H-pyrrolo[2,3-b]pyridin-5-yl)oxy)-4-(4-((4′-chloro-5,5-dimethyl-3,4,5,6-tetra-hydro[1,1′-biphenyl]-2-yl)methyl)piperazin-1-yl)-N-((3-cyclopropyl-5-nitro-3,4-dihy-dro-2H-benzo[b][14,]oxazin-7-yl)sulfonyl) benzamide], for which the IC50 in assay [1] turned out to be 56 nM; in assay [2] it was 11 nM.

As to `CC1(C)CCC(CN2CCN(c3ccc(C(=O)NS(=O)(=O)c4cc5c(c([N+](=O)[O-])c4)N[C@H](CCN4CCOCC4)CS5)c(Oc4cnc5[nH]ccc5c4)c3)CC2)=C(c2ccc(Cl)cc2)C1` [Example 3-2, (R)-2-((1H-pyrrolo[2,3-b]pyridin-5-yl)oxy)-4-(4-((4′-chloro-5,5-dimethyl-3,4,5,6-tetrahydro-[1,1′-biphenyl]-2-yl)methyl)piperazin-1-yl)-N-((3-(2-morpholinoethyl)-5-nitro-3,4-dihydro-2H-benzo[b][1,4]thiazin-7-yl)sulfonyl)benzamide], the IC50 in assay [1] came to 13 nM; in assay [2] it was 3 nM.

In the case of `COC(=O)N1CCN(C[C@H]2COc3cc(S(=O)(=O)NC(=O)c4ccc(N5CCN(CC6=C(c7ccc(Cl)cc7)CC(C)(C)CC6)CC5)cc4Oc4cnc5[nH]ccc5c4)cc([N+](=O)[O-])c3N2)CC1` [Example 2-98, methyl (S)-4-((7-(N-(2-((1H-pyrrolo[2,3-b]pyridin-5-y)oxy)-4-(4-((4′-chloro-5,5-dimethyl-3,4,5,6-tetrahydro[1,1′-biphenyl]-2-yl)methyl)piperazin-1-yl)benzoyl)sulfamoyl)-5-nitro-3,4-dihydro-2H-benzo[b][1,4]oxazin-3-yl)methyl)piperazine-1-carboxylate], the IC50 is 38 nM in assay [1] and 17 nM in assay [2].

As for `CC(C)[C@H]1COc2cc(S(=O)(=O)NC(=O)c3ccc(N4CCN(CC5=C(c6ccc(Cl)cc6)CC(C)(C)CC5)CC4)cc3Oc3cnc4[nH]ccc4c3)cc([N+](=O)[O-])c2N1` [Example 2-113, (S)-2-((1H-pyrrolo[2,3-b]pyridin-5-yl)oxy)-4-(4-((4′-chloro-5,5-dimethyl-3,4,5,6-tetra-hydro-[1,1′-biphenyl]-2-yl)methyl)piperazin-1-yl)-N-((3-isopropyl-5-nitro-3,4-dihydro-2H-benzo[b][1,4]oxazin-7-yl)sulfonyl) benzamide], the IC50 in assay [1] turned out to be 20 nM; in assay [2], 6 nM.

With `CC1(C)CCC(CN2CCN(c3ccc(C(=O)NS(=O)(=O)c4cc5c(c([N+](=O)[O-])c4)N[C@H](c4ccc(S(C)(=O)=O)cc4)CO5)c(Oc4cnc5[nH]ccc5c4)c3)CC2)=C(c2ccc(Cl)cc2)C1` [Example 2-175, (R)-2-((1H-pyrrolo[2,3-b]pyridin-5-yl)oxy)-4-(4-((4′-chloro-5,5-dimethyl-3,4,5,6-tetra-hydro-[1,1′-biphenyl]-2-yl)methyl)piperazin-1-yl)-N-((3-(4-(methylsulfonyl)phenyl)-5-nitro-3,4-dihydro-2H-benzo[b][1,4]oxazin-7-yl)sulfonyl)benzamide], the IC50 in assay [1] came out at 139 nM; in assay [2], 53 nM.

For `CC1(C)CCC(CN2CCN(c3ccc(C(=O)NS(=O)(=O)c4cc5c(c([N+](=O)[O-])c4)N[C@@H](CCN4CCC(C)(O)CC4)CO5)c(Oc4cnc5[nH]ccc5c4)c3)CC2)=C(c2ccc(Cl)cc2)C1` [Example 2-11, (S)-2-((1H-pyrrolo[2,3-b]pyridin-5-yl)oxy)-4-(4-((4′-chloro-5,5-dimethyl-3,4,5,6-tetra-hydro-[1,1′-biphenyl]-2-yl)methyl)piperazin-1-yl)-N-((3-(2-(4-hydroxy-4-methylpiper-idin-1-yl)ethyl)-5-nitro-3,4-dihydro-2H-benzo[b][1,4]oxazin-7-yl)sulfonyl)benzamide], the figures for the IC50 in assay [1] and in assay [2] were 53 nM and 12 nM, respectively.

In the case of `COC[C@@H]1COc2cc(S(=O)(=O)NC(=O)c3ccc(N4CCN(CC5=C(c6ccc(Cl)cc6)CC(C)(C)CC5)CC4)cc3Oc3cnc4[nH]ccc4c3)cc([N+](=O)[O-])c2N1` [Example 2-110, (R)-2-((1H-pyrrolo[2,3-b]pyridin-5-yl)oxy)-4-(4-((4′-chloro-5,5-dimethyl-3,4,5,6-tetra-hydro-[1,1′-biphenyl]-2-yl)methyl)piperazin-1-yl)-N-((3-(methoxymethyl)-5-nitro-3,4-dihydro-2H-benzo[b][1,4]oxazin-7-yl)sulfo-nyl)benzamide], the IC50 in assay [1] was 96 nM; in assay [2], 2 nM.

As for `CC1(C)CCC(CN2CCN(c3ccc(C(=O)NS(=O)(=O)c4cc5c(c([N+](=O)[O-])c4)O[C@H](CN4CCOCC4)CO5)c(Oc4cnc5[nH]ccc5c4)c3)CC2)=C(c2ccc(Cl)cc2)C1` [Example 5-3, (R)-2-((1H-pyrrolo[2,3-b]pyridin-5-yl)oxy)-4-(4-((4′-chloro-5,5-dimethyl-3,4,5,6-tetrahydro-[1,1′-biphenyl]-2-yl)methyl)piperazin-1-yl)-N-((2-(morpholinomethyl)-8-nitro-2,3-dihydrobenzo[b][1,4]dioxin-6-yl)sulfonyl)benzamide], the figures for the IC50 in assay [1] and in assay [2] were 12 nM and 4 nM, respectively.

`CC1(C)CCC(CN2CCN(c3ccc(C(=O)NS(=O)(=O)c4cc5c(c([N+](=O)[O-])c4)N[C@@H](CN4CC(O)C4)CO5)c(Oc4cnc5[nH]ccc5c4)c3)CC2)=C(c2ccc(Cl)cc2)C1` [Example 2-24, (S)-2-((1H-pyrrolo[2,3-b]pyridin-5-yl)oxy)-4-(4-((4′-chloro-5,5-dimethyl-3,4,5,6-tetra-hydro-[1,1′-biphenyl]-2-yl)methyl)piperazin-1-yl)-N-((3-((3-hydroxyazetidin-1-yl)meth-yl)-5-nitro-3,4-dihydro-2H-benzo[b][1,4]oxazin-7-yl)sulfonyl)benzamide]: the IC50 in assay [1] came out at 115 nM; in assay [2] it was 72 nM.

On to `C[C@H]1CN(CC[C@H]2COc3cc(S(=O)(=O)NC(=O)c4ccc(N5CCN(CC6=C(c7ccc(Cl)cc7)CC(C)(C)CC6)CC5)cc4Oc4cnc5[nH]ccc5c4)cc([N+](=O)[O-])c3N2)CCN1C1COC1` [Example 2-50], for which the IC50 in assay [1] was 22 nM; in assay [2] it was 9 nM.

Consider `CN1CCN(C[C@@H]2Cc3cc(S(=O)(=O)NC(=O)c4ccc(N5CCN(CC6=C(c7ccc(Cl)cc7)CC(C)(C)CC6)CC5)cc4Oc4cnc5[nH]ccc5c4)cc([N+](=O)[O-])c3N2)CC1` [Example 1-3, (S)-2-((1H-pyrrolo[2,3-b]pyridin-5-yl)oxy)-4-(4-((4′-chloro-5,5-dimethyl-3,4,5,6-tetra-hydro-[1,1′-biphenyl]-2-yl)methyl)piperazin-1-yl)-N-((2-((4-methylpiperazin-1-yl)meth-yl)-7-nitroindolin-5-yl)sulfonyl)benzamide], for which the IC50 came to 20 nM in assay [1] and 8 nM in assay [2].

As for `C[C@H]1CN(CC[C@H]2COc3cc(S(=O)(=O)NC(=O)c4ccc(N5CCN(CC6=C(c7ccc(Cl)cc7)CC(C)(C)CC6)CC5)cc4Oc4cnc5[nH]ccc5c4)cc([N+](=O)[O-])c3N2)CCO1` [Example 2-51], the IC50 in assay [1] worked out at 13 nM; in assay [2], 10 nM.

For `CC1(C)CCC(CN2CCN(c3ccc(C(=O)NS(=O)(=O)c4cc5c(c([N+](=O)[O-])c4)N[C@H](CN4CCN(S(C)(=O)=O)CC4)CO5)c(Oc4cnc5[nH]ccc5c4)c3)CC2)=C(c2ccc(Cl)cc2)C1` [Example 2-90, (R)-2-((1H-pyrrolo[2,3-b]pyridin-5-yl)oxy)-4-(4-((4′-chloro-5,5-dimethyl-3,4,5,6-tetra-hydro-[1,1′-biphenyl]-2-yl)methyl)piperazin-1-yl)-N-((3-((4-(methylsulfonyl)piperazin-1-yl)methyl)-5-nitro-3,4-dihdyro-2H-ben-zo[b][1,4]oxazin-7-yl)sulfonyl)benzamide], the IC50 in assay [1] was found to be 22 nM; in assay [2] it was 8 nM.

As for `CC1(C)CCC(CN2CCN(c3ccc(C(=O)NS(=O)(=O)c4cc5c(c([N+](=O)[O-])c4)N[C@H](CN4CCC(N=S(C)(C)=O)CC4)CO5)c(Oc4cnc5[nH]ccc5c4)c3)CC2)=C(c2ccc(Cl)cc2)C1` [Example 2-150], the IC50 in assay [1] came out at 67 nM; in assay [2] it was 45 nM.

The term IC50 denotes the midpoint of a concentration-inhibition curve. Lower therefore signals inhibition by little substance.
